{"source": "patent US20120196766A1", "about": "“Therapeutic Use of Farnesyltransferase Inhibitors and Methods of Monitoring the Efficacy Thereof” (priority 2004, published 2012)", "key": {"human PBMC": {"system": "human PBMC", "assay": "LPS-induced cytokine production in human PBMC", "assay_type": "cell-based", "protocol": "Human IL-6, IL18, IL1β, MCP-1, MMP-9, and mouse IL-6, IL18, TNFα, MCP-1 and IL-1β were measured with ELISA kits (R&D Systems) according to the manufacturer's instructions.\nHeparinized human blood (25 ml) from a healthy donor was overlaid into a 50 ml conical tubes containing 20 ml Ficoll-Paque, and centrifuged for 20 min at 2000 rpm at room temperature and then allowed to stop without using the brake on the centrifuge. The upper layer was aspirated, leaving the mononuclear cell layer undisturbed at the interface. Cells were carefully transferred the to a new […] conical tube. The conical tube was filled with PBS, mixed and centrifuged at 1500 rpm for 15 minutes at room temperature. The supernatant was carefully and completely removed. The cell pellet was resupended in 50 ml of PBS and centrifuged at 1500 rpm for 5 minutes. This wash step was repeated once more. The cells were counted and resuspended cells at 1.7×10^6/ml in low-endotoxin RPMI1640/10% FBS.\nHuman PBMC (180 μl at 1.7×10^6/ml) were pipetted into each well of a 96-well plate. […] Cells were incubated at 37° C., under 5% CO2 for 1 hour, then 10 μl LPS (diluted in medium) were added per well to reach a final concentration of 10 ng/ml. Cells were cultured at 37° C., under 5% CO2. Supernatants were collected at 16 hours, 24 hours and 40 hours of LPS treatment, and IL-6 secretion was quantified."}, "THP-1 cells": {"system": "THP-1 cells", "assay": "Western blot analysis of LPS, TNF-α and IL-1α induced signaling in THP-1 cells", "assay_type": "cell-based, Human", "protocol": "THP-1 cells in 0.5% FBS/RPMI were pre-treated with or without tipifarnib for 18 hours, and subsequently stimulated with LPS (100 ng/ml), TNF-α (10 ng/ml) or IL-1α (5 ng/ml) for 30 minutes. Cells were harvested, washed three times in ice-cold PBS, and lysed in lysis buffer (20 mM Tris (pH 7.5), 150 mM NaCl, 1 mM EDTA, 1 mM EGTA, 1% Triton X-100, 2.5 mM sodium pyrophosphate, 1 mM ([…], 1 mM Na3VO4, 1 μg/ml Leupeptin, 1 mM PMSF). Cell lysates from each sample were mixed with an equal amount of 2× SDS-PAGE sample buffer (Invitrogen), and proteins were separated by electrophoresis in Tris-glycine 10-20% gradient gels (Novex), and transferred to nitrocellulose membranes (PROTRAN; Schleicher & Schuell). The membranes were blocked with 3% BSA in PBS-0.05% Tween-20, and sequentially incubated with primary antibodies and HRP-conjugated secondary antibodies (anti-rabbit IgG or anti-mouse IgG and IgM; PIERCE), followed by ECL detection (Amersham Biosciences). The primary antibodies used were rabbit polyclonal anti-IκBa, and -p38 (Santa Cruz), mouse monoclonal anti-H-Ras (Chemicon), mouse monoclonal anti-phospho-p38 and rabbit polyclonal anti-phospho-Erk (Cell Signaling Technology)."}, "cachexia": {"system": "cachexia", "conditions": "US 2004/0157773, WO 02/085364; cited from earlier work"}}, "data": [{"smiles": "Cn1cncc1C(N)(c1ccc(Cl)cc1)c1ccc2c(c1)c(-c1cccc(Cl)c1)cc(=O)n2C", "note": "(single isomer, unassigned; (+)) [tipifarnib, (+)-6-[amino(4-chlorophenyl)(1-methyl-1H-imidazol-5-yl)methyl]-4-(3-chlorophenyl)-1-methyl-2(1H)-quinolinone]", "values": [{"measurement": "LPS-induced IL-6 production", "setting": "human PBMC; tipifarnib 2 μM, LPS 10 ng/ml, 10% FBS", "result": "no effect"}, {"measurement": "IL-6 mean value lower than in absence of compound", "setting": "human PBMC; tipifarnib 5 μM, 24 hours, not statistically significant (P=0.104)", "result": "approximately 40%"}, {"measurement": "LPS-induced IL-6 production", "setting": "human PBMC; tipifarnib 5 μM, after 16 and 40 hours", "result": "highly significant inhibition"}, {"measurement": "IκB degradation induced by IL-1α", "setting": "THP-1 cells; 2 μM tipifarnib for 18 hours", "result": "no inhibition"}, {"measurement": "IκB degradation induced by TNF-α", "setting": "THP-1 cells; 2 μM tipifarnib for 18 hours", "result": "no inhibition"}, {"measurement": "LPS-induced IκB degradation", "setting": "THP-1 cells; 2 μM tipifarnib for 18 hours", "result": "significantly inhibited"}, {"measurement": "LPS-induced p38 phosphorylation", "setting": "THP-1 cells; 2 μM tipifarnib for 18 hours", "result": "partially reduced"}, {"measurement": "P38 protein expression", "setting": "THP-1 cells; 2 μM tipifarnib for 18 hours", "result": "not affected"}, {"measurement": "TNF-α induced p38 phosphorylation", "setting": "THP-1 cells; 2 μM tipifarnib for 18 hours", "result": "No significant inhibition"}, {"measurement": "H-Ras farnesylation", "setting": "THP-1 cells; tipifarnib pre-treatment, all treatment groups", "result": "partially inhibited"}, {"measurement": "ERK phosphorylation", "setting": "THP-1 cells; tipifarnib pre-treatment, control and stimulated cells", "result": "reduced"}, {"measurement": "cachexia", "setting": "cachexia", "result": "inhibition"}]}]}
